Consider 18 compounds from patent US9018231B2, “Sulfone compounds as 5-HT6 receptor ligands” (Suven Life Sciences Limited, priority 2010, dated 2015).

As a reminder, the Kb is the equilibrium dissociation constant of an antagonist, usually derived from a functional assay. The melting point is the temperature, or range, at which the solid turns liquid. As a reminder, the AUC(0-t) is exposure summed from dosing to a finite time, without extrapolation to infinity. Usually half-life stands for the time in which the quantity being followed falls by half. The Cmax is the maximum level reached in the sampled fluid or tissue. By Tmax is commonly meant the time from dosing to the highest level. Broadly, the bioavailability is the share of a dose that reaches the circulation, judged against a reference dose that is usually intravenous.

Counter-ions that a name gives are not always drawn. Like-named read-outs stand apart in the source and are kept apart here.

Data set [1] deals with T1, recombinant human 5-HT6 receptor (Homo sapiens, UniProt P50406).
T1 construct: expressed in transfected cells
Kind of data set: Determination of Kb values for 5-HT6 receptor (CHO pCRE-Luc reporter assay). It is filed as cell-based. The following applies: antagonism of 10 uM serotonin, luciferase reporter, CHO cells. The method, then: A stable CHO cell line expressing recombinant human 5-HT6 receptor and pCRE-Luc reporter system was used for cell-based assay. The assay offers a non-radioactive based approach to determine binding of a compound to GPCRs. In this specific assay, the level of intracellular cyclic AMP which is modulated by activation or inhibition of the receptor is measured. The recombinant cells harbor luciferase reporter gene under the control of cAMP response element.
The above cells were grown in 96 well clear bottom white plates in Hams F12 medium containing 10% fetal bovine serum (FBS). Prior to the addition of compounds and/or agonist, cells were serum starved overnight. Increasing concentrations of test compounds were added along with 10 uM serotonin in Hams F12 medium containing 1% dialyzed FBS to the cells. The incubation was continued at 37° C. in CO2 incubator for 4 hours. Medium was removed and cells were washed with phosphate buffered saline. The cells were lysed and luciferase activity was measured in a Luminometer. Luminescence units were plotted against the compound concentrations using Graphpad software. EC50 values of the compounds were defined as the concentration required reducing the luciferase activity by 50%. The Kb values were calculated by feeding the concentration of the agonist used in the assay and its EC50 value in the same software.
Background: Reporter assays use an easily measured gene product as a stand-in for the process of interest.

Data set [2] is described as follows: Rodent pharmacokinetic study. It is filed as in vivo. The note with it: plasma, Wistar/Male rat, 10 mg/kg; for AUC(0-t) / half-life / Cmax / Tmax: vehicle water (Ex. 8: 50% PEG 400); for Cmax: read-out: Cmax; for Tmax: read-out: Tmax; for bioavailability: Oral vs Intravenous, read-out: Bioavailability. The method, then:
Male wistar rats (230-280 grams) obtained from NIN (National Institute of Nutrition, Hyderabad, India) were used as an experimental animal. Three to five animals were housed in each cage. Animals were kept fasted over night and maintained on a 12 hours light/dark cycle. Three rats were dosed NCE (10 mg/Kg) orally and intravenously on day 0 and day 2.
At each time point blood was collected by jugular vein. Plasma was stored frozen at −20° C. until analysis. The concentrations of the NCE compound in plasma were determined using LC-MS/MS method. Schedule time points: Pre dose 0.25, 0.5, 1, 1.5, 2, 3, 4, 6, 8, 10, 12 and 24 hours after dosing (n=3). The NCE compounds were quantified in plasma by validated LC-MS/MS method using solid phase extraction technique. NCE compounds were quantified in the calibration range of 2-2000 ng/mL in plasma. Study samples were analyzed using calibration samples in the batch and quality control samples spread across the batch.
Pharmacokinetic parameters Cmax, Tmax, AUCt, T1/2 and Bioavailability were calculated by non-compartmental model using software WinNonlin version 5.1.

Data set [3] can be described thus: Object recognition task model. It is filed as in vivo. The note with it: rat, p.o. The method, then: The cognition-enhancing properties of compounds of this invention were estimated using a model of animal cognition: the object recognition task model.
Male Wister rats (230-280 grams) obtained from N.I.N. (National Institute of Nutrition, Hyderabad, India) was used as experimental animals. Four animals were housed in each cage. Animals were kept on 20% food deprivation before one day and given water ad libitum throughout the experiment and maintained on a 12 hours light/dark cycle. Also the rats were habituated to individual arenas for 1 hour in the absence of any objects.
One group of 12 rats received vehicle (1 mL/Kg) orally and another set of animals received compound of the formula (I) either orally or i.p., before one hour of the familiar (T1) and choice trial (T2).
The experiment was carried out in a 50×50×50 cm open field made up of acrylic. In the familiarization phase, (T1), the rats were placed individually in the open field for 3 minutes, in which two identical objects (plastic bottles, 12.5 cm height×5.5 cm diameter) covered in yellow masking tape alone (a1 and a2) were positioned in two adjacent corners, 10 cm. from the walls. After 24 hours of the (T1) trial for long-term memory test, the same rats were placed in the same arena as they were placed in T1 trial. Choice phase (T2) rats were allowed to explore the open field for 3 minutes in presence of one familiar object (a3) and one novel object (b) (Amber color glass bottle, 12 cm high and 5 cm in diameter). Familiar objects presented similar textures, colors and sizes. During the T1 and T2 trial, explorations of each object (defined as sniffing, licking, chewing or having moving vibrissae whilst directing the nose towards the object at a distance of less than 1 cm) were recorded separately by stopwatch. Sitting on an object was not regarded as exploratory activity, however, it was rarely observed. T1 is the total time spent exploring the familiar objects (a1+a2). T2 is the total time spent exploring the familiar object and novel object (a3+b).
The object recognition test was performed as described by Ennaceur, A., Delacour, J., 1988, A new one-trial test for neurobiological studies of memory in rats—Behavioural data, Behav. Brain Res., 31, 47-59.

T1 sequence (P50406 whole entry): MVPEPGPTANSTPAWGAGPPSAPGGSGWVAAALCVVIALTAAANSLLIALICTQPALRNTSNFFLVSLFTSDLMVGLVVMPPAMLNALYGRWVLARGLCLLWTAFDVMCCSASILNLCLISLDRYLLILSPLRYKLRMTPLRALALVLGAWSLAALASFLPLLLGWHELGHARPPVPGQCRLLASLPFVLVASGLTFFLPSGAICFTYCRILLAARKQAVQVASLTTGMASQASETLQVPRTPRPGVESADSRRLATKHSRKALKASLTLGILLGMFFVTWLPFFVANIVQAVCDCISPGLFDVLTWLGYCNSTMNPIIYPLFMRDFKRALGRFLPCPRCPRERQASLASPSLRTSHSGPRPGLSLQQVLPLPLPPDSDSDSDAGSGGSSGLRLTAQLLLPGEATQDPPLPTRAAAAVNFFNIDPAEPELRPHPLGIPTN

For the compound `COc1ccc(S(=O)(=O)c2ccc(OC)c(NC3CCN(C)CC3)c2)cc1Br` [Example 30, N-[5-(3-Bromo-4-methoxybenzenesulfonyl)-2-methoxyphenyl]-N-(1-methylpiperidin-4-yl)amine tartarate], the Kb in data set [1] was 0.01 nM.
In turn, `COc1ccc2[nH]cc(S(=O)(=O)c3ccc(Cl)c(NC4CCN(C)CC4)c3)c2c1.Cl` returned a melting point of 240.3 to 243.2 °C.
Regarding `COc1ccc2[nH]cc(S(=O)(=O)c3ccc(OC)c(NC4CCNCC4)c3)c2c1` [Example 14, N-(Piperidin-4-yl)-N-[2-methoxy-5-(5-methoxy-1H-Indole-3-ylsulfonyl)phenyl]amine], the antagonist dissociation constant (Kb) in data set [1] worked out at 0.16 nM.
On the same count and under the same terms, next, `COc1ccc(S(=O)(=O)c2cc(Br)ccc2OC)cc1NC1CCNCC1` [Example 29, N-[5-(5-Bromo-2-methoxybenzenesulfonyl)-2-methoxyphenyl]-N-(piperidin-4-yl)amine hydrochloride]: 0.1 nM.
`COc1ccc(S(=O)(=O)c2cc(Br)ccc2OC)cc1NC1CCNCC1F.Cl` (stereo not drawn) [Example 28, N-[5-(5-Bromo-2-methoxybenzenesulfonyl)-2-methoxyphenyl]-N-(3-fluoropiperidin-4-yl)amine hydrochloride]: the Kb in data set [1] was 0.1 nM. In addition, in data set [2] (Intravenous), the AUC(0-t) is 3470 ± 161 ng·h/mL, the half-life is 1.46 ± 0.13 h, the Cmax was 1920 ± 29 ng/mL and the Tmax amounted to 0.08 h. The bioavailability in data set [2] was found to be 44 ± 18%. Also, in data set [2] (Oral), the AUC(0-t) was found to be 1520 ± 630 ng·h/mL, the half-life is 1.36 ± 0.07 h, the Cmax is 429 ± 181 ng/mL and the Tmax was 0.83 ± 0.29 h. In data set [3] (1 mg/kg), the “Exploration time mean ± S.E.M, Familiar object” value was found to be 6.26 ± 0.30 s; the “Exploration time mean ± S.E.M, Novel object” value is 11.46 ± 1.02 s; the Inference entry is on record as “Active”.
In the case of `COc1ccc(Br)cc1S(=O)(=O)c1ccc(C)c(NC2CCNCC2F)c1` (stereo not drawn) [Example 18, N-[5-(5-Bromo-2-methoxybenzenesulfonyl)-2-methylphenyl]-N-(3-fluoropiperidin-4-yl) amine hydrochloride], in data set [1], the antagonist equilibrium constant (Kb) amounted to 6.1 nM.
For the compound `COc1ccc(S(=O)(=O)c2cc(Br)ccc2OC)cc1NC1CCN(C)CC1.Cl` [Example 3, N-[5-(5-Bromo-2-methoxybenzenesulfonyl)-2-methoxyphenyl]-N-(1-methylpiperidin-4-yl)amine hydrochloride salt], the Kb in data set [1] was 0.01 nM. Besides, in data set [2] (Intravenous), the AUC(0-t) is 1610 ± 544 ng·h/mL, the half-life is 1.57 ± 0.21 h, the Cmax came to 1080 ± 569 ng/mL and the Tmax was determined as 0.12 ± 0.09 h. The bioavailability in data set [2] came out at 38 ± 1%. Moreover, in data set [2] (Oral), the AUC(0-t) amounted to 931 ± 186 ng·h/mL, the half-life is 1.35 ± 0.27 h, the highest concentration (Cmax) was 341 ± 60 ng/mL and the Tmax was determined as 0.56 ± 0.31 h. Further, in data set [3] (1 mg/kg), the “Exploration time mean ± S.E.M, Familiar object” value is 4.53 ± 0.72 s; the “Exploration time mean ± S.E.M, Novel object” value came to 10.29 ± 1.54 s; the Inference result is recorded as “Active”.
For the compound `COc1ccc(S(=O)(=O)c2c[nH]c3ccccc23)cc1NC1CCN(C)CC1` [Example 11, N-(1-Methylpiperidin-4-yl)-N-[2-methoxy-5-(1H-Indole-3-ylsulfonyl)phenyl]amine], the Kb in data set [1] was found to be 0.05 nM. In data set [3] (3 mg/kg), the “Exploration time mean ± S.E.M, Familiar object” value amounted to 9.19 ± 1.44 s; the “Exploration time mean ± S.E.M, Novel object” value was found to be 14.24 ± 1.29 s; the Inference entry is reported as “Active”.
On to `COc1ccc(S(=O)(=O)c2ccc(Cl)cc2)cc1NC1CCN(C)CC1` [Example 32, N-[5-(4-Chlorobenzenesulfonyl)-2-methoxyphenyl]-N-(1-methylpiperidin-4-yl)amine tartarate], for which the Kb in data set [1] turned out to be 0.06 nM.
Turning to `CN1CCC(Nc2cc(S(=O)(=O)c3c[nH]c4cc(Cl)ccc34)ccc2Cl)CC1` [Example 15, N-(1-Methylpiperidin-4-yl)-N-[2-chloro-5-(6-chloro-1H-Indole-3-ylsulfonyl)phenyl] amine], the melting point lay in the range of 186.1 to 189.9 °C.
As for `Cc1ccc(S(=O)(=O)c2ccccc2)cc1NC1CCN(C)CC1` [Example 35, N-(5-Benzenesulfonyl-2-methylphenyl)-N-(1-methylpiperidin-4-yl)amine], in data set [3] (10 mg/kg), the “Exploration time mean ± S.E.M, Familiar object” value amounted to 9.37 ± 1.66 s; the “Exploration time mean ± S.E.M, Novel object” value worked out at 15.81 ± 2.89 s; the Inference entry is recorded as “Active”.
With `COc1ccc(Br)cc1S(=O)(=O)c1ccc(C)c(NC2CCNCC2)c1` [Example 22, N-[5-(5-Bromo-2-methoxybenzenesulfonyl)-2-methylphenyl]-N-(piperidin-4-yl)amine hydrochloride], the Kb in data set [1] came out at 1.1 nM.
Turning to `CN1CCC(Nc2cccc(S(=O)(=O)c3c[nH]c4cc(Cl)ccc34)c2)CC1` [Example 5, N-(1-Methylpiperidin-4-yl)-N-[3-(6-chloro-1H-indole-3-ylsulfonyl)phenyl]amine hydrochloride], the Kb in data set [1] worked out at 3.38 nM.
For `COc1ccc(S(=O)(=O)c2ccc(OC)c(NC3CCN(C)CC3)c2)cc1Cl` [Example 34, N-[5-(3-Chloro-4-methoxybenzenesulfonyl)-2-methoxyphenyl]-N-(1-methylpiperidin-4-yl)amine tartarate], in data set [1], the antagonist dissociation constant (Kb) was 0.1 nM.
As for `COc1ccc(Br)cc1S(=O)(=O)c1ccc(C)c(NC2CCN(C)CC2)c1` [Example 23, N-[5-(5-Bromo-2-methoxybenzenesulfonyl)-2-methylphenyl]-N-(1-methylpiperidin-4-yl)amine hydrochloride], the Kb in data set [1] is 2.1 nM.
As for `COc1ccc(S(=O)(=O)c2cc(F)ccc2OC)cc1NC1CCN(C)CC1` [Example 31, N-[5-(5-Fluoro-2-methoxybenzenesulfonyl)-2-methoxyphenyl]-N-(1-methylpiperidin-4-yl)amine tartarate], in data set [1], the Kb worked out at 0.05 nM.
For `COc1ccc2[nH]cc(S(=O)(=O)c3ccc(OC)c(NC4CCN(C)CC4)c3)c2c1` [Example 13, N-(1-Methylpiperidin-4-yl)-N-[2-methoxy-5-(5-methoxy-1H-Indole-3-ylsulfonyl)phenyl]amine], the Kb in data set [1] was found to be 0.11 nM.
In turn, `CN1CCC(Nc2cccc(S(=O)(=O)c3c[nH]c4ccc(F)cc34)c2)CC1.Cl` [Example 6, N-(1-Methylpiperidin-4-yl)-N-[3-(5-fluoro-1H-indole-3-ylsulfonyl)phenyl]amine hydrochloride] came in with a melting point of 229.7 to 233.1 °C. Further, the Kb in data set [1] stood at 3.59 nM.
